Experimental findings from patent publication US20050257287A1, “Vectors capable of imparting herbicide resistance and viral cross protection and methods” (priority 2002, published 2005) are described below.

For this assay, the system named is weeds including nutgrass (Cyperus rotundus L.), little hogweed (Portulaca oleracea L.), pigweed (Amaranthus sp.) and annual graminaceous weeds. The experiment in a line: Field experiment: weed eradication by Basta. Type of assay: in vivo. The conditions noted are these: 0.5% Basta with or without AMS 1.5 g/L. On the procedure: Two varieties of melon (Galia-type cv. 5080 and Ananas-type cv. Ofir), two varieties of watermelon (cvs Crimson and Seedless 313), squash (cv. Maayan) and cucumber (cv. Shimshon) were seeded in Speedling type trays. Seedlings were inoculated by bombardment of cotyledons with the AGII-Bar or AGII construct. Plants were planted in a 500 m^2 field, in a sandy loam soil, at 0.5 m intervals in six 2 m wide rows and irrigated by a single line of 0.5 m interval dripline. Each row included 15 plants of each of the five-cucurbit varieties, 13 plants inoculated with AGII-Bar and two inoculated with AGII as a control. Irrigation was initiated a week previously to boost weeds and facilitate planting. […] The active ingredient was calculated per hectare (g a.i./ha) on basis of ground speed measured separately for each treatment. […] Squash fruit were picked and counted daily. […] Each group was counted and then weighed collectively.
In order to verify the applicability of AGII-Bar to commercial cucurbit cultivation in a field prone to weed infestation an experiment including more than 450 plants was conducted. […] Ten day post inoculation, the infection rate was determined by ELISA of 50 random plant samples and found to be 100%. […]

For ammonium sulphate [AMS], the “Effect of adjuvant on herbicidal activity” value was “did not exert a detectable difference”.
